Measured values reported in ChEMBL document CHEMBL1201862, “PubChem BioAssay data set” (2004).
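Method: 48-hour compound exposure of cells in 96-well plates, five concentrations, linear interpolation of endpoints. GI50 marks 50% less growth.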 Activity calls are given as the source filed them. Rule as the data show it: active = GI50 up to about 1.1 µM and inactive = higher.

Key:
Assay in all cases: NCI tumour cell line growth inhibition, 48 h
786-0 = tested on: 786-0
A498 = tested on: A498
A549 = tested on: A549
ACHN = tested on: ACHN
BT-549 = tested on: BT-549
CAKI-1 = tested on: CAKI-1
CCRF-CEM = tested on: CCRF-CEM
COLO 205 = tested on: COLO 205
DU-145 = tested on: DU-145
EKVX = tested on: EKVX
HCC 2998 = tested on: HCC 2998
HCT-116 = tested on: HCT-116
HCT-15 = tested on: HCT-15
HL-60 = tested on: HL-60
HOP-62 = tested on: HOP-62
HOP-92 = tested on: HOP-92
HT-29 = tested on: HT-29
Hs-578T = tested on: Hs-578T
IGROV-1 = tested on: IGROV-1
K562 = tested on: K562
KM12 = tested on: KM12
LOX IMVI = tested on: LOX IMVI
M14 = tested on: M14
MCF7 = tested on: MCF7
MDA-MB-231 = tested on: MDA-MB-231
MDA-MB-435 = tested on: MDA-MB-435
MDA-N = tested on: MDA-N
MOLT-4 = tested on: MOLT-4
Malme-3M = tested on: Malme-3M
NCI-H226 = tested on: NCI-H226
NCI-H23 = tested on: NCI-H23
NCI-H460 = tested on: NCI-H460
NCI-H522 = tested on: NCI-H522
NCI/ADR-RES = tested on: NCI/ADR-RES
OVCAR-3 = tested on: OVCAR-3
OVCAR-4 = tested on: OVCAR-4
OVCAR-5 = tested on: OVCAR-5
OVCAR-8 = tested on: OVCAR-8
PC-3 = tested on: PC-3
RPMI-8226 = tested on: RPMI-8226
RXF 393 = tested on: RXF 393
SF-268 = tested on: SF-268
SF-295 = tested on: SF-295
SF-539 = tested on: SF-539
SK-MEL-28 = tested on: SK-MEL-28
SK-MEL-2 = tested on: SK-MEL-2
SK-MEL-5 = tested on: SK-MEL-5
SK-OV-3 = tested on: SK-OV-3
SN12C = tested on: SN12C
SNB-19 = tested on: SNB-19
SNB-75 = tested on: SNB-75
SR = tested on: SR
SW-620 = tested on: SW-620
T47D = tested on: T47D
TK-10 = tested on: TK-10
U-251 = tested on: U-251
UACC-257 = tested on: UACC-257
UACC-62 = tested on: UACC-62
UO-31 = tested on: UO-31

Question: For COc1ccc(C(CC(C)=O)c2c(O)c3ccccc3oc2=O)cc1OC (configuration not stated), which GI50 (786-0) is on record?
Answer: > 100 µM (inactive)

Question: What about the GI50 (A498) of the same molecule?
Answer: > 100 µM (inactive)

Question: What about the GI50 (A549) of the same molecule?
Answer: > 100 µM (inactive)

Question: What about the GI50 (ACHN) of the same molecule?
Answer: > 100 µM (inactive)

Question: And the GI50 (BT-549)?
Answer: > 100 µM (inactive)

Question: And the GI50 (CAKI-1)?
Answer: > 100 µM (inactive)

Question: And the GI50 (CCRF-CEM)?
Answer: > 100 µM (inactive)

Question: And the GI50 (COLO 205)?
Answer: > 100 µM (inactive)

Question: What about the GI50 (DU-145) of the same molecule?
Answer: > 100 µM (inactive)

Question: And the GI50 (EKVX)?
Answer: > 100 µM (inactive)

Question: What about the GI50 (HCC 2998) of the same molecule?
Answer: > 100 µM (inactive)

Question: And the GI50 (HCT-116)?
Answer: > 100 µM (inactive)

Question: And the GI50 (HCT-15)?
Answer: > 100 µM

Question: And the GI50 (HL-60)?
Answer: > 100 µM (inactive)

Question: What about the GI50 (HOP-62) of the same molecule?
Answer: > 100 µM (inactive)

Question: And the GI50 (HOP-92)?
Answer: > 100 µM (inactive)

Question: And the GI50 (HT-29)?
Answer: > 100 µM (inactive)

Question: What about the GI50 (Hs-578T) of the same molecule?
Answer: > 100 µM (inactive)

Question: And the GI50 (IGROV-1)?
Answer: > 100 µM (inactive)

Question: And the GI50 (K562)?
Answer: > 100 µM (inactive)

Question: What about the GI50 (KM12) of the same molecule?
Answer: > 100 µM (inactive)

Question: And the GI50 (LOX IMVI)?
Answer: > 100 µM (inactive)

Question: And the GI50 (M14)?
Answer: > 100 µM (inactive)

Question: And the GI50 (MCF7)?
Answer: > 100 µM (inactive)

Question: What about the GI50 (MDA-MB-231) of the same molecule?
Answer: > 100 µM (inactive)

Question: And the GI50 (MDA-MB-435)?
Answer: > 100 µM (inactive)

Question: And the GI50 (MDA-N)?
Answer: > 100 µM (inactive)

Question: And the GI50 (MOLT-4)?
Answer: > 100 µM (inactive)

Question: And the GI50 (Malme-3M)?
Answer: > 100 µM (inactive)

Question: And the GI50 (NCI-H226)?
Answer: > 100 µM (inactive)

Question: And the GI50 (NCI-H23)?
Answer: > 100 µM (inactive)

Question: And the GI50 (NCI-H460)?
Answer: > 100 µM (inactive)

Question: What about the GI50 (NCI-H522) of the same molecule?
Answer: > 100 µM (inactive)

Question: What about the GI50 (NCI/ADR-RES) of the same molecule?
Answer: > 100 µM (inactive)

Question: What about the GI50 (OVCAR-3) of the same molecule?
Answer: > 100 µM (inactive)

Question: What about the GI50 (OVCAR-4) of the same molecule?
Answer: > 100 µM (inactive)

Question: And the GI50 (OVCAR-5)?
Answer: > 100 µM (inactive)

Question: And the GI50 (OVCAR-8)?
Answer: > 100 µM (inactive)

Question: And the GI50 (PC-3)?
Answer: > 100 µM (inactive)

Question: What about the GI50 (RPMI-8226) of the same molecule?
Answer: > 100 µM (inactive)

Question: What about the GI50 (RXF 393) of the same molecule?
Answer: > 100 µM (inactive)

Question: What about the GI50 (SF-268) of the same molecule?
Answer: > 100 µM (inactive)

Question: And the GI50 (SF-295)?
Answer: > 100 µM (inactive)

Question: And the GI50 (SF-539)?
Answer: > 100 µM (inactive)

Question: And the GI50 (SK-MEL-28)?
Answer: > 100 µM (inactive)

Question: And the GI50 (SK-MEL-2)?
Answer: > 100 µM (inactive)

Question: What about the GI50 (SK-MEL-5) of the same molecule?
Answer: > 100 µM (inactive)

Question: And the GI50 (SK-OV-3)?
Answer: > 100 µM (inactive)

Question: And the GI50 (SN12C)?
Answer: > 100 µM (inactive)

Question: What about the GI50 (SNB-19) of the same molecule?
Answer: > 100 µM (inactive)

Question: What about the GI50 (SNB-75) of the same molecule?
Answer: > 100 µM (inactive)

Question: And the GI50 (SR)?
Answer: > 100 µM (inactive)

Question: What about the GI50 (SW-620) of the same molecule?
Answer: > 100 µM (inactive)

Question: And the GI50 (T47D)?
Answer: > 100 µM (inactive)

Question: And the GI50 (TK-10)?
Answer: > 100 µM (inactive)

Question: And the GI50 (U-251)?
Answer: > 100 µM (inactive)

Question: And the GI50 (UACC-257)?
Answer: > 100 µM (inactive)

Question: What about the GI50 (UACC-62) of the same molecule?
Answer: > 100 µM (inactive)

Question: And the GI50 (UO-31)?
Answer: > 100 µM (inactive)

Question: How did the GI50 (786-0) turn out when NC(Cc1ncccn1)C(=O)O (configuration not stated) was run?
Answer: > 100 µM (inactive)

Question: And the GI50 (A498)?
Answer: > 100 µM (inactive)

Question: What about the GI50 (A549) of the same molecule?
Answer: > 100 µM (inactive)

Question: What about the GI50 (ACHN) of the same molecule?
Answer: > 100 µM (inactive)

Question: What about the GI50 (BT-549) of the same molecule?
Answer: > 100 µM (inactive)

Question: And the GI50 (CAKI-1)?
Answer: > 100 µM (inactive)

Question: And the GI50 (CCRF-CEM)?
Answer: > 100 µM (inactive)

Question: What about the GI50 (COLO 205) of the same molecule?
Answer: > 100 µM (inactive)

Question: What about the GI50 (DU-145) of the same molecule?
Answer: > 100 µM (inactive)

Question: And the GI50 (EKVX)?
Answer: > 100 µM (inactive)

Question: What about the GI50 (HCC 2998) of the same molecule?
Answer: > 100 µM (inactive)

Question: And the GI50 (HCT-116)?
Answer: > 100 µM (inactive)

Question: And the GI50 (HCT-15)?
Answer: > 100 µM

Question: And the GI50 (HOP-62)?
Answer: > 100 µM (inactive)

Question: What about the GI50 (HOP-92) of the same molecule?
Answer: > 100 µM (inactive)

Question: What about the GI50 (HT-29) of the same molecule?
Answer: > 100 µM (inactive)

Question: And the GI50 (Hs-578T)?
Answer: > 100 µM (inactive)

Question: What about the GI50 (IGROV-1) of the same molecule?
Answer: > 100 µM (inactive)

Question: What about the GI50 (K562) of the same molecule?
Answer: > 100 µM (inactive)

Question: What about the GI50 (KM12) of the same molecule?
Answer: > 100 µM (inactive)

Question: And the GI50 (LOX IMVI)?
Answer: > 100 µM (inactive)

Question: What about the GI50 (M14) of the same molecule?
Answer: > 100 µM (inactive)

Question: And the GI50 (MCF7)?
Answer: > 100 µM (inactive)

Question: What about the GI50 (MDA-MB-231) of the same molecule?
Answer: > 100 µM (inactive)

Question: And the GI50 (MDA-MB-435)?
Answer: > 100 µM (inactive)

Question: And the GI50 (MDA-N)?
Answer: > 100 µM (inactive)

Question: And the GI50 (MOLT-4)?
Answer: > 100 µM (inactive)

Question: And the GI50 (Malme-3M)?
Answer: > 100 µM (inactive)

Question: What about the GI50 (NCI-H226) of the same molecule?
Answer: > 100 µM (inactive)

Question: And the GI50 (NCI-H23)?
Answer: > 100 µM (inactive)

Question: And the GI50 (NCI-H460)?
Answer: > 100 µM (inactive)

Question: And the GI50 (NCI-H522)?
Answer: > 100 µM (inactive)

Question: What about the GI50 (NCI/ADR-RES) of the same molecule?
Answer: > 100 µM (inactive)

Question: And the GI50 (OVCAR-3)?
Answer: > 100 µM (inactive)

Question: What about the GI50 (OVCAR-4) of the same molecule?
Answer: > 100 µM (inactive)

Question: What about the GI50 (OVCAR-5) of the same molecule?
Answer: > 100 µM (inactive)

Question: What about the GI50 (OVCAR-8) of the same molecule?
Answer: > 100 µM (inactive)

Question: What about the GI50 (PC-3) of the same molecule?
Answer: > 100 µM (inactive)

Question: And the GI50 (RPMI-8226)?
Answer: > 100 µM (inactive)

Question: What about the GI50 (RXF 393) of the same molecule?
Answer: > 100 µM (inactive)

Question: What about the GI50 (SF-268) of the same molecule?
Answer: > 100 µM (inactive)

Question: And the GI50 (SF-295)?
Answer: > 100 µM (inactive)

Question: And the GI50 (SF-539)?
Answer: > 100 µM (inactive)

Question: What about the GI50 (SK-MEL-28) of the same molecule?
Answer: > 100 µM (inactive)

Question: And the GI50 (SK-MEL-2)?
Answer: > 100 µM (inactive)

Question: And the GI50 (SK-MEL-5)?
Answer: > 100 µM (inactive)

Question: What about the GI50 (SK-OV-3) of the same molecule?
Answer: > 100 µM (inactive)

Question: And the GI50 (SN12C)?
Answer: > 100 µM (inactive)

Question: And the GI50 (SNB-19)?
Answer: > 100 µM (inactive)

Question: And the GI50 (SNB-75)?
Answer: > 100 µM (inactive)

Question: And the GI50 (SR)?
Answer: > 100 µM (inactive)

Question: What about the GI50 (SW-620) of the same molecule?
Answer: > 100 µM (inactive)

Question: What about the GI50 (T47D) of the same molecule?
Answer: > 100 µM (inactive)

Question: What about the GI50 (TK-10) of the same molecule?
Answer: > 100 µM (inactive)

Question: What about the GI50 (U-251) of the same molecule?
Answer: > 100 µM (inactive)

Question: And the GI50 (UACC-257)?
Answer: > 100 µM (inactive)

Question: What about the GI50 (UACC-62) of the same molecule?
Answer: > 100 µM (inactive)

Question: And the GI50 (UO-31)?
Answer: > 100 µM (inactive)
